± gives the expanded uncertainty stated by the source.
Conditions: Liquid, Closed cell (Static) method

SMILES | vapor or sublimation pressure (364.52 K) | other results
CO [methanol] | 267.6 ± 1.4 kPa | –
CC(C)O [propan-2-ol] | – | vapor or sublimation pressure (364.51 K): 144.1 ± 1 kPa
CCCO [propan-1-ol] | – | vapor or sublimation pressure (364.53 K): 81.2 ± 0.9 kPa
CCC(C)O (stereo unspecified) [butan-2-ol] | 75.4 ± 0.9 kPa | –
C/C=C/C [(E)-2-butene] | 1268.7 ± 5.7 kPa [middle of 5 runs] | –
CC(C)(C)O [2-methylpropan-2-ol] | 143.3 ± 1 kPa | –

Source: the NIST ThermoML archive (doi:10.1021/je700690q)
